In patent US20240366770A1, “DEGRADATION OF BRUTON'S TYROSINE KINASE (BTK) BY CONJUGATION OF BTK INHIBITORS WITH E3 LIGASE LIGAND AND METHODS OF USE” (BeiGene Switzerland GmbH, priority 2021, published 2024):
pIC50: −log10 of the molar value.

What was measured:
BTK = biological target: T1, BTK (Homo sapiens, UniProt Q06187); test: BTK degradation in TMD-8 cells (HTRF assay); type: cell-based; conditions: 6 h treatment, IC50 (DC50) of BTK degradation
T1 construct: High control=Cell group with added DMSO and without compound, indicating microplate readings without BTK degradation; endogenous in cells; host or cells: TMD-8
T1 sequence (Q06187 whole entry): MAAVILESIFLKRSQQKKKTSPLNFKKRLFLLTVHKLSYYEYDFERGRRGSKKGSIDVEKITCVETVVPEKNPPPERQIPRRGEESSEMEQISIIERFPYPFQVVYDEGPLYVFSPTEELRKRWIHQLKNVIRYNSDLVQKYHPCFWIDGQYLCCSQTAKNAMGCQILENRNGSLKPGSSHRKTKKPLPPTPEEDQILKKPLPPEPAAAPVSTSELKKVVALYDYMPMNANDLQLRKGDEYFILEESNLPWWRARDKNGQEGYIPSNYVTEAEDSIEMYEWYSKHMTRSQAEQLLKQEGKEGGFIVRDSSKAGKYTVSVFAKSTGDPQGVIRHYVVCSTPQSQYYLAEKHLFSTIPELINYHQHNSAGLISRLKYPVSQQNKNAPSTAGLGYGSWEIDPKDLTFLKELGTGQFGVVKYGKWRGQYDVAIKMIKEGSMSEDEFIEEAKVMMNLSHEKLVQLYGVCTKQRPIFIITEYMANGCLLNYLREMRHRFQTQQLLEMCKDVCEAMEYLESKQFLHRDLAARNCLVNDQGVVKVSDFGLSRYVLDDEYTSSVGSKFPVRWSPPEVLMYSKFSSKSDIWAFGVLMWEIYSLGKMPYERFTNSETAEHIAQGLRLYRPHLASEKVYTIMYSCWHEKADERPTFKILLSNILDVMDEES
Procedure, shortened: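 TMD-8 cells were exposed for 6 h to 8 compound doses (6-fold serial dilution, 0.2% DMSO). Lysed cells were incubated overnight at room temperature with HTRF antibodies and read at 665/620 nm. DC50 came from four-parameter fitting of % inhibition versus concentration.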

HEK-293 cells = test: HEK-293 cytotoxicity detection (CellTiter-Glo); type: cell-based; conditions: Homo sapiens; HEK-293 cells, 72 h incubation, CellTiter-Glo luminescence, IC50 of cell proliferation inhibition; read-out: HEK293
Procedure, shortened: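 HEK-293 cells exposed 72 h to an 8-point, 4-fold dilution series (top 500× stock 5 mM in DMSO; 0.2% DMSO final). Viability by CellTiter-Glo luminescence after 10 min at room temperature; IC50 from four-parameter Hill fit of percent inhibition.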

## CC(C)(C)c1noc(C(=O)NCC2CCN(c3ncnc4[nH]c5cc(N6CCN(CC7CCN(c8ccc(N9CCC(=O)NC9=O)cc8)CC7)CC6)ccc5c34)CC2)n1 [Example 70, 3-(tert-butyl)-N-((1-(7-(4-((1-(4-(2,4-dioxotetrahydropyrimidin-1(2H)-yl)phenyl)piperidin-4-yl)methyl)piperazin-1-yl)-9H-pyrimido[4,5-b]indol-4-yl)piperidin-4-yl)methyl)-1,2,4-oxadiazole-5-carboxamide]
BTK
  DC50: 140 nM
HEK-293 cells
  pIC50: 5.70

## COc1cc2c(cc1N1CCN(C3CC(c4ccc([C@H]5CCC(=O)NC5=O)cc4)C3)CC1)[nH]c1ncnc(-c3ccc([C@@H](C)NC(=O)c4nc(C(C)(C)C)no4)c(C)c3F)c12 (stereo partly drawn) [Example 56, 3-(tert-butyl)-N—((R)-1-(4-(7-(4-(3-(4-((R)-2,6-dioxopiperidin-3-yl)phenyl)cyclobutyl)piperazin-1-yl)-6-methoxy-9H-pyrimido[4,5-b]indol-4-yl)-3-fluoro-2-methylphenyl)ethyl)-1,2,4-oxadiazole-5-carboxamide]
BTK
  DC50: 10.3 nM
HEK-293 cells
  pIC50: < 5.00

## Cc1c([C@@H](C)NC(=O)c2noc(C(C)(C)C)n2)ccc(-c2ncnc3[nH]c4cc(N5CCN(C6CN(c7ccc(N8CCC(=O)NC8=O)cc7)C6)CC5)ccc4c23)c1F [Example 63, (R)-5-(tert-butyl)-N-(1-(4-(7-(4-(1-(4-(2,4-dioxotetrahydropyrimidin-1(2H)-yl)phenyl)azetidin-3-yl)piperazin-1-yl)-9H-pyrimido[4,5-b]indol-4-yl)-3-fluoro-2-methylphenyl)ethyl)-1,2,4-oxadiazole-3-carboxamide]
BTK
  DC50: 6.82 nM
HEK-293 cells
  pIC50: < 5.00

## Cc1cc(-c2ncnc3[nH]c4cc(N5CCN(C6CN(C7CN(c8ccc(N9CCC(=O)NC9=O)cc8)C7)C6)CC5)ccc4c23)ccc1[C@@H](C)NC(=O)c1nc(C2(C)CC2)no1 [Example 122, (R)—N-(1-(4-(7-(4-(1′-(4-(2,4-dioxotetrahydropyrimidin-1(2H)-yl)phenyl)-[1,3′-biazetidin]-3-yl)piperazin-1-yl)-9H-pyrimido[4,5-b]indol-4-yl)-2-methylphenyl)ethyl)-3-(1-methylcyclopropyl)-1,2,4-oxadiazole-5-carboxamide]
BTK
  DC50: 0.395 nM
HEK-293 cells
  pIC50: < 5.00

## Cc1cc(-c2ncnc3[nH]c4cc(N5CCN(C6CC(c7ccc(N8CCC(=O)NC8=O)cc7)C6)CC5)ccc4c23)ccc1[C@@H](C)NC(=O)c1nc(C2(C)CC2)no1 (stereo partly drawn) [Example 125, (R)—N-(1-(4-(7-(4-(3-(4-(2,4-dioxotetrahydropyrimidin-1(2H)-yl)phenyl)cyclobutyl)piperazin-1-yl)-9H-pyrimido[4,5-b]indol-4-yl)-2-methylphenyl)ethyl)-3-(1-methylcyclopropyl)-1,2,4-oxadiazole-5-carboxamide]
BTK
  DC50: 0.197 nM
HEK-293 cells
  pIC50: < 5.00

## Cc1c([C@@H](C)NC(=O)c2noc(C(C)(C)C)n2)ccc(-c2ncnc3[nH]c4cc(N5CCN(Cc6ccc7c(c6)N(C6CCC(=O)NC6=O)C(=O)C7(C)C)CC5)ccc4c23)c1F (stereo partly drawn) [Example 85, 5-(tert-butyl)-N-((1R)-1-(4-(7-(4-((1-(2,6-dioxopiperidin-3-yl)-3,3-dimethyl-2-oxoindolin-6-yl)methyl)piperazin-1-yl)-9H-pyrimido[4,5-b]indol-4-yl)-3-fluoro-2-methylphenyl)ethyl)-1,2,4-oxadiazole-3-carboxamide]
BTK
  DC50: > 2000 nM
HEK-293 cells
  pIC50: < 5.00

## Cc1cc(-c2ncnc3[nH]c4cc(CCN5CCN(C6CN(c7ccc(N8CCC(=O)NC8=O)cc7)C6)CC5)ccc4c23)ccc1[C@@H](C)NC(=O)c1nc(C(C)(C)C)no1 [Example 105, (R)-3-(tert-butyl)-N-(1-(4-(7-(2-(4-(1-(4-(2,4-dioxotetrahydropyrimidin-1(2H)-yl)phenyl)azetidin-3-yl)piperazin-1-yl)ethyl)-9H-pyrimido[4,5-b]indol-4-yl)-2-methylphenyl)ethyl)-1,2,4-oxadiazole-5-carboxamide]
BTK
  DC50: 0.512 nM
HEK-293 cells
  pIC50: < 5.00

## Cc1cc(-c2ncnc3[nH]c4cc(C5CCN(C6CC(c7ccc(C8CCC(=O)NC8=O)cc7)C6)CC5)ncc4c23)ccc1[C@@H](C)NC(=O)c1nc(C(C)(C)C)no1 (stereo partly drawn) [Example 41, 3-(tert-butyl)-N-((1R)-1-(4-(7-(1-(3-(4-(2,6-dioxopiperidin-3-yl)phenyl)cyclobutyl)piperidin-4-yl)-9H-pyrido[3′,4′:4,5]pyrrolo[2,3-d]pyrimidin-4-yl)-2-methylphenyl)ethyl)-1,2,4-oxadiazole-5-carboxamide]
BTK
  DC50: 1.85 nM
HEK-293 cells
  pIC50: 5.47

## COc1cc2c(cc1N1CCN(C3CCN(c4cccc(C5CCC(=O)NC5=O)c4)C3)CC1)[nH]c1ncnc(-c3ccc([C@@H](C)NC(=O)c4nc(C(C)(C)C)no4)c(C)c3)c12 (stereo partly drawn) [Example 51, 3-(tert-butyl)-N-((1R)-1-(4-(7-(4-(1-(3-(2,6-dioxopiperidin-3-yl)phenyl)pyrrolidin-3-yl)piperazin-1-yl)-6-methoxy-9H-pyrimido[4,5-b]indol-4-yl)-2-methylphenyl)ethyl)-1,2,4-oxadiazole-5-carboxamide]
BTK
  DC50: 0.987 nM
HEK-293 cells
  pIC50: < 5.00

## COc1cc2c(cc1N1CCN(C3CCN(c4cccc(C5CCC(=O)NC5=O)c4)C3)CC1)[nH]c1ncnc(-c3ccc([C@@H](C)NC(=O)c4nc(C(C)(C)C)no4)c(C)c3F)c12 (stereo partly drawn) [Example 57, 3-(tert-butyl)-N-((1R)-1-(4-(7-(4-(1-(3-(2,6-dioxopiperidin-3-yl)phenyl)pyrrolidin-3-yl)piperazin-1-yl)-6-methoxy-9H-pyrimido[4,5-b]indol-4-yl)-3-fluoro-2-methylphenyl)ethyl)-1,2,4-oxadiazole-5-carboxamide]
BTK
  DC50: 9.6 nM
HEK-293 cells
  pIC50: < 5.00

## Cc1c([C@@H](C)NC(=O)c2nc(C3(C)CC3)no2)ccc(-c2ncnc3[nH]c4cc(N5CCN(C6CC(c7ccc([C@@H]8CCC(=O)NC8=O)cc7)C6)CC5)ccc4c23)c1F (stereo partly drawn) [Example 65, N—((R)-1-(4-(7-(4-(3-(4-((S)-2,6-dioxopiperidin-3-yl)phenyl)cyclobutyl)piperazin-1-yl)-9H-pyrimido[4,5-b]indol-4-yl)-3-fluoro-2-methylphenyl)ethyl)-3-(1-methylcyclopropyl)-1,2,4-oxadiazole-5-carboxamide]
BTK
  DC50: 4.24 nM
HEK-293 cells
  pIC50: < 5.00

## COc1cc2c(cc1N1CCN(C3CC(c4ccc([C@H]5CCC(=O)NC5=O)cc4)C3)CC1)[nH]c1ncnc(-c3ccc([C@@H](C)NC(=O)c4noc(C(C)(C)C)n4)c(C)c3F)c12 (stereo partly drawn) [Example 60, 5-(tert-butyl)-N—((R)-1-(4-(7-(4-(3-(4-((R)-2,6-dioxopiperidin-3-yl)phenyl)cyclobutyl)piperazin-1-yl)-6-methoxy-9H-pyrimido[4,5-b]indol-4-yl)-3-fluoro-2-methylphenyl)ethyl)-1,2,4-oxadiazole-3-carboxamide]
BTK
  DC50: 4.97 nM
HEK-293 cells
  pIC50: < 5.00

## Cc1c([C@@H](C)NC(=O)c2nc(C3(C)CC3)no2)ccc(-c2ncnc3[nH]c4cc(N5CCN(CC6CCN(c7ccc(N8CCC(=O)NC8=O)cc7)CC6)CC5)ccc4c23)c1F [Example 64, (R)—N-(1-(4-(7-(4-((1-(4-(2,4-dioxotetrahydropyrimidin-1(2H)-yl)phenyl)piperidin-4-yl)methyl)piperazin-1-yl)-9H-pyrimido[4,5-b]indol-4-yl)-3-fluoro-2-methylphenyl)ethyl)-3-(1-methylcyclopropyl)-1,2,4-oxadiazole-5-carboxamide]
BTK
  DC50: 3.02 nM
HEK-293 cells
  pIC50: < 5.00

## COc1cc2c(cc1N1CCN(Cc3ccc(SC4CCC(=O)NC4=O)cc3)CC1)[nH]c1ncnc(-c3ccc([C@@H](C)NC(=O)c4nc(C(C)(C)C)no4)c(C)c3)c12 (stereo partly drawn) [Example 75, 3-(tert-butyl)-N-((1R)-1-(4-(7-(4-(4-((2,6-dioxopiperidin-3-yl)thio)benzyl)piperazin-1-yl)-6-methoxy-9H-pyrimido[4,5-b]indol-4-yl)-2-methylphenyl)ethyl)-1,2,4-oxadiazole-5-carboxamide]
BTK
  DC50: > 2000 nM
HEK-293 cells
  pIC50: < 5.00

## Cc1c([C@@H](C)NC(=O)c2noc(C(C)(C)C)n2)ccc(-c2ncnc3[nH]c4cc(N5CCN(CCc6cccc7c6n(C)c(=O)n7C6CCC(=O)NC6=O)CC5)ccc4c23)c1F (stereo partly drawn) [Example 82, 5-(tert-butyl)-N-((1R)-1-(4-(7-(4-(2-(1-(2,6-dioxopiperidin-3-yl)-3-methyl-2-oxo-2,3-dihydro-1H-benzo[d]imidazol-4-yl)ethyl)piperazin-1-yl)-9H-pyrimido[4,5-b]indol-4-yl)-3-fluoro-2-methylphenyl)ethyl)-1,2,4-oxadiazole-3-carboxamide]
BTK
  DC50: 3.17 nM
HEK-293 cells
  pIC50: < 5.00

## Cc1cc(-c2ncnc3[nH]c4cc(N5CCC6(CC5)CCN(C5CC(c7ccc([C@H]8CCC(=O)NC8=O)cc7)C5)C6)ccc4c23)ccc1[C@@H](C)NC(=O)c1nc(C(C)(C)C)no1 (stereo partly drawn) [Example 102, 3-(tert-butyl)-N—((R)-1-(4-(7-(2-(3-(4-((R)-2,6-dioxopiperidin-3-yl)phenyl)cyclobutyl)-2,8-diazaspiro[4.5]decan-8-yl)-9H-pyrimido[4,5-b]indol-4-yl)-2-methylphenyl)ethyl)-1,2,4-oxadiazole-5-carboxamide]
BTK
  DC50: 4.88 nM
HEK-293 cells
  pIC50: 5.99

## COc1cc2c(cc1N1CCN(C3CC(c4ccc([C@@H]5CCC(=O)NC5=O)cc4)C3)CC1)[nH]c1ncnc(-c3ccc([C@@H](C)NC(=O)c4nc(C(C)(C)C)no4)c(C)c3)c12 (stereo partly drawn) [Example 49, 3-(tert-butyl)-N—((R)-1-(4-(7-(4-(3-(4-((S)-2,6-dioxopiperidin-3-yl)phenyl)cyclobutyl)piperazin-1-yl)-6-methoxy-9H-pyrimido[4,5-b]indol-4-yl)-2-methylphenyl)ethyl)-1,2,4-oxadiazole-5-carboxamide]
BTK
  DC50: 1.08 nM
HEK-293 cells
  pIC50: < 5.00
